Among the data in patent US20230082430A1 (C4 Therapeutics, Inc., priority 2019, published 2023) are IC50 values, retold here.

Where a name gives a salt, the structure may show the parent alone.

By IC50 is commonly meant the concentration that inhibits the measured activity by half.

The test system of the first assay is NCIH929.1 cells. As to the kind of experiment: Cell viability assay for Table 2 (CellTiter-Glo 2.0, ATP quantification, 96 hr). In kind it is cell-based. The following applies: 96 h, NCIH929.1 cell viability, 96 hr, top concentration 1 μM, 14 points half log titration; read-out: IC50. From the text: Cell Viability Assay for Table 2
CellTiter-Glo® 2.0 Assay was purchased from Promega (Madison, Wis., USA). NCIH929.1 cell line was purchased from ATCC (Manassas, Va., USA). Cell culture flasks and 384-well microplates were acquired from VWR (Radnor, Pa., USA).
For orientation: Cellular ATP, detected with luciferase, serves as a proxy for viable cell number.
For `O=C1CCC(N2C(=O)c3cccc4c(Cc5ccc(CN6CCCOCC6)cc5)ccc2c34)C(=O)N1` (stereo not drawn) [Compound 123, 3-(6-(4-((1,4-oxazepan-4-yl)methyl)benzyl)-2-oxobenzo[cd]indol-1(2H)-yl)piperidine-2,6-dione], the IC50 was < 1 nM. With `N#Cc1ccc(N2CCN(Cc3ccc(Cc4ccc5c6c(cccc46)C(=O)N5C4CCC(=O)NC4=O)cc3)C3(CC3)C2)c(F)c1` (stereo not drawn) [Compound 131, 4-[4-[[4-[[1-(2,6-dioxo-3-piperidyl)-2-oxo-benzo[cd]indol-6-yl]methyl]phenyl]methyl]-4,7-diazaspiro[2.5]octan-7-yl]-3-fluoro-benzonitrile], the IC50 was < 1 nM.

Consider `COC(C)(C)C(=O)N1CCC(C)(n2cc(Cc3ccc4c5c(cccc35)C(=O)N4C3CCC(=O)NC3=O)cn2)CC1` (stereo not drawn) [Compound 84, 3-(6-((1-(1-(2-methoxy-2-methylpropanoyl)-4-methylpiperidin-4-yl)-1H-pyrazol-4-yl)methyl)-2-oxobenzo[cd]indol-1(2H)-yl)piperidine-2,6-dione], for which the IC50 was < 1 nM. Still for that read-out and setting: as for `CC(C)(CO)C(=O)N1CCC(C)(n2cc(Cc3ccc4c5c(cccc35)C(=O)N4C3CCC(=O)NC3=O)cn2)CC1` (stereo not drawn) [Compound 98, 3-(6-((1-(1-(3-hydroxy-2,2-dimethylpropanoyl)-4-methylpiperidin-4-yl)-1H-pyrazol-4-yl)methyl)-2-oxobenzo[cd]indol-1(2H)-yl)piperidine-2,6-dione], the figure is < 1 nM; as for `CC(C)(C)OC(=O)N1CCN(Cc2ccc(Cc3ccc4c5c(cccc35)C(=O)N4C3CCC(=O)NC3=O)cc2)CC1` (stereo not drawn) [Compound 107, tert-butyl 4-(4-((1-(2,6-dioxopiperidin-3-yl)-2-oxo-1,2-dihydrobenzo[cd]indol-6-yl)methyl)benzyl)piperazine-1-carboxylate], < 1 nM; as for `CC1(C(=O)N2CCC(n3cc(Cc4ccc5c6c(cccc46)C(=O)N5C4CCC(=O)NC4=O)nn3)CC2)CCC1` (stereo not drawn) [Compound 192, 3-[6-[[1-[1-(1-methylcyclobutanecarbonyl)-4-piperidyl]triazol-4-yl]methyl]-2-oxo-benzo[cd]indol-1-yl]piperidine-2,6-dione], < 1 nM. On to `CC1(CN2CCC(C#N)(n3cc(Cc4ccc5c6c(cccc46)C(=O)N5C4CCC(=O)NC4=O)cn3)CC2)CCC1` (stereo not drawn) [Compound 193, 4-[4-[[1-(2,6-dioxo-3-piperidyl)-2-oxo-benzo[cd]indol-6-yl]methyl]pyrazol-1-yl]-1-[(1-methylcyclobutyl)methyl]piperidine-4-carbonitrile], for which the IC50 was < 1 nM. `CC1(CN2CCC(n3cc(Cc4ccc5c6c(cccc46)C(=O)N5C4CCC(=O)NC4=O)cn3)CC2)CCC1` (stereo not drawn) [Compound 55, 3-(6-((1-(1-((1-methylcyclobutyl)methyl)piperidin-4-yl)-1H-pyrazol-4-yl)methyl)-2-oxobenzo[cd]indol-1(2H)-yl)piperidine-2,6-dione]: the IC50 is < 1 nM.

With `CC1(C(=O)N2CCC(c3cnn(Cc4ccc5c6c(cccc46)C(=O)N5C4CCC(=O)NC4=O)c3)CC2)CCC1` (stereo not drawn) [Compound 270, 3-[6-[[4-[1-(1-methylcyclobutanecarbonyl)-4-piperidyl]pyrazol-1-yl]methyl]-2-oxo-benzo[cd]indol-1-yl]piperidine-2,6-dione], the IC50 is < 1 nM.

Consider `CC(C)(C)OC(=O)N1CCC(n2cc(Cc3ccc4c5c(cccc35)C(=O)N4C3CCC(=O)NC3=O)cn2)CC1` (single isomer, unassigned) [Compound 141, tert-butyl 4-[4-[[1-[2,6-dioxo-3-piperidyl]-2-oxo-benzo[cd]indol-6-yl]methyl]pyrazol-1-yl]piperidine-1-carboxylate], for which the IC50 was < 1 nM.

`O=C1CCC(N2C(=O)c3cccc4c(Cc5ccc(CN6CCOCC6)cc5)ccc2c34)C(=O)N1` (single isomer, unassigned) [Compound 220, 3-(6-(4-(morpholinomethyl)benzyl)-2-oxobenzo[cd]indol-1(2H)-yl)piperidine-2,6-dione]: the IC50 is < 1 nM. As for `O=C1CCC(N2C(=O)c3cccc4c(Cc5ccc(CN6CCOCC6)cc5)cnc2c34)C(=O)N1` (racemic) [Compound 221, 3-[20-[[4-(morpholinomethyl)phenyl]methyl]-25-oxo-27,30-diazatricyclododeca-(2),1(18),7(20),19(21),22(27)-pentaen-30-yl]piperidine-2,6-dione], the IC50 was < 1 nM. As for `CC(C)(C)OC(=O)N1CCC(n2cc(C(O)c3ccc4c5c(cccc35)C(=O)N4C3CCC(=O)NC3=O)cn2)CC1` (stereo not drawn) [Compound 266, tert-butyl 4-[4-[[1-(2,6-dioxo-3-piperidyl)-2-oxo-benzo[cd]indol-6-yl]-hydroxy-methyl]pyrazol-1-yl]piperidine-1-carboxylate], the IC50 was < 1 nM. In the case of `CC1(C(=O)N2CCC(c3cccc(Cc4ccc5c6c(cccc46)C(=O)N5C4CCC(=O)NC4=O)c3)CC2)CCC1` (stereo not drawn) [Compound 290, 3-[6-[[3-[1-(1-methylcyclobutanecarbonyl)-4-piperidyl]phenyl]methyl]-2-oxo-benzo[cd]indol-1-yl]piperidine-2,6-dione], the IC50 was < 1 nM. On the same count and under the same terms, the same measure for `O=C1CCC(N2C(=O)c3cccc4c(Cc5ccc(CN6CCN(CC(F)(F)F)CC6)cc5)ccc2c34)C(=O)N1` (stereo not drawn) [Compound 161, 3-(2-Oxo-6-{4-[4-(2,2,2-trifluoro-ethyl)-piperazin-1-ylmethyl]-benzyl}-2H-benzo[cd]indol-1-yl)-piperidine-2,6-dione]: < 1 nM; for `CC12CC(C(=O)N3CCC(n4cc(Cc5ccc6c7c(cccc57)C(=O)N6C5CCC(=O)NC5=O)cn4)CC3)(CCO1)C2` (stereo not drawn) [Compound 49, 3-(6-((1-(1-(1-methyl-2-oxabicyclo[3.1.1]heptane-5-carbonyl)piperidin-4-yl)-1H-pyrazol-4-yl)methyl)-2-oxobenzo[cd]indol-1(2H)-yl)piperidine-2,6-dione]: < 1 nM; for `CC(C)(C)C[C@H]1CC[C@@H](n2cc(Cc3ccc4c5c(cccc35)C(=O)N4C3CCC(=O)NC3=O)cn2)CC1` (stereo partly drawn) [Compound 259, 3-(6-((1-((1r,4r)-4-neopentylcyclohexyl)-1H-pyrazol-4-yl)methyl)-2-oxobenzo[cd]indol-1(2H)-yl)piperidine-2,6-dione]: < 1 nM. Take `CC1(C(=O)N2CCC(C)(n3cc(Cc4ccc5c6c(cccc46)C(=O)N5C4CCC(=O)NC4=O)cn3)CC2)CCN(c2ccccn2)CC1` (stereo not drawn) [Compound 271, 3-(6-((1-(4-methyl-1-(4-methyl-1-(pyridin-2-yl)piperidine-4-carbonyl)piperidin-4-yl)-1H-pyrazol-4-yl)methyl)-2-oxobenzo[cd]indol-1(2H)-yl)piperidine-2,6-dione]: the IC50 was < 1 nM. For `Nc1ccc2c3c(cccc13)C(=O)N2C1CCC(=O)NC1=O` (stereo not drawn) [Compound 144, 3-(6-Amino-2-oxo-2H-benzo[cd]indol-1-yl)-piperidine-2,6-dione hydrochloride], the 50% inhibitory concentration (IC50) is < 999 nM.

Regarding `CC1(CN2CCC(C)(n3cc(Cc4ccc5c6c(cccc46)C(=O)N5C4CCC(=O)NC4=O)cn3)CC2)CC1` (stereo not drawn) [Compound 100, 3-(6-((1-(4-methyl-1-((1-methylcyclopropyl)methyl)piperidin-4-yl)-1H-pyrazol-4-yl)methyl)-2-oxobenzo[cd]indol-1(2H)-yl)piperidine-2,6-dione], the IC50 was < 1 nM. Take `N#Cc1ccc(N2CCC(Oc3ccc(Cc4ccc5c6c(cccc46)C(=O)N5C4CCC(=O)NC4=O)cc3)CC2)c(F)c1` (stereo not drawn) [Compound 171, 4-[4-[4-[[1-(2,6-dioxo-3-piperidyl)-2-oxo-benzo[cd]indol-6-yl]methyl]phenoxy]-1-piperidyl]-3-fluoro-benzonitrile]: the IC50 is < 1 nM. For `O=C1CCC(N2C(=O)c3cccc4c(Cc5cnn(C6CCN(C7(C8CC8)CC7)CC6)c5)ccc2c34)C(=O)N1` (stereo not drawn) [Compound 223, 3-[6-[[1-[1-(1-cyclopropylcyclopropyl)-4-piperidyl]pyrazol-4-yl]methyl]-2-oxo-benzo[cd]indol-1-yl]piperidine-2,6-dione], the IC50 is < 1 nM. Same read-out and setting: the same measure for `CC1(CN2CCC(n3cc(Cc4ccc5c6c(cccc46)C(=O)N5C4CCC(=O)NC4=O)cn3)CC2)CC1` (stereo not drawn) [Compound 64, 3-[6-[[1-[1-[(1-methylcyclopropyl)methyl]-4-piperidyl]pyrazol-4-yl]methyl]-2-oxo-benzo[cd]indol-1-yl]piperidine-2,6-dione]: < 1 nM; for `O=C1CCC(N2C(=O)c3cccc4c(Cc5ccccc5)ccc2c34)C(=O)N1` (stereo not drawn) [Compound 277, 3-(6-benzyl-2-oxo-benzo[cd]indol-1-yl)piperidine-2,6-dione]: < 1 nM. Consider `CC(C)(C#N)C(=O)N1CCC(C)(n2cc(Cc3ccc4c5c(cccc35)C(=O)N4C3CCC(=O)NC3=O)cn2)CC1` (stereo not drawn) [Compound 80, 3-(4-(4-((1-(2,6-dioxopiperidin-3-yl)-2-oxo-1,2-dihydrobenzo[cd]indol-6-yl)methyl)-1H-pyrazol-1-yl)-4-methylpiperidin-1-yl)-2,2-dimethyl-3-oxopropanenitrile], for which the IC50 was < 1 nM. Same read-out and setting: the same measure for `CC1(C(=O)N2CCC(C)(n3cc(Cc4ccc5c6c(cccc46)C(=O)N5C4CCC(=O)NC4=O)cn3)CC2)CCOCC1` (stereo not drawn) [Compound 81, 3-(6-((1-(4-methyl-1-(4-methyltetrahydro-2H-pyran-4-carbonyl)piperidin-4-yl)-1H-pyrazol-4-yl)methyl)-2-oxobenzo[cd]indol-1(2H)-yl)piperidine-2,6-dione]: < 1 nM.

The assay is the same for the next values; noted with them: NCIH929.1 cell viability, 96 hr, top concentration 1 μM, 14 points half log titration; read-out: IC50.
On to `CC1(C(=O)N2CCC(n3cc(Cc4ccc5c6c(cccc46)C(=O)N5C4CCC(=O)NC4=O)cn3)CC2)CCC1` (single isomer, unassigned) [Compound 68, 3-[6-[[1-[1-(1-methylcyclobutanecarbonyl)-4-piperidyl]pyrazol-4-yl]methyl]-2-oxo-benzo[cd]indol-1-yl]piperidine-2,6-dione], for which the IC50 is < 1 nM.
